According to patent US20220153745A1, “DISUBSTITUTED BENZOTHIENYL-PYRROLOTRIAZINES AND THEIR USE AS FGFR KINASE INHIBITORS” (Bayer Intellectual Property GmbH, priority 2011, published 2022):
Where a name gives a salt, the structure may show the parent alone.

Experiments:
mTOR = biological target: T1, mTOR (Homo sapiens, UniProt P42345); assay: mTOR kinase assay (TR-FRET, for comparative purposes); assay type: biochemical; settings: for inhibition at 1 µM: read-out: mTOR % inhibition @ 1 μM, mean inhibition at 1 μM test compound, 40 μM ATP; for mTOR % inhibition @ 1 μM: mean inhibition at 1 μM test compound, 40 μM ATP
T1 construct: human mTOR amino acids from 1360 to 2549; purchased Invitrogen 4753; host or cells: insect cells

[1] = test system: Human umbilical vein endothelial cells (HUVEC); assay: Inhibition of hFGF-2 mediated HUVEC proliferation; assay type: cell-based; settings: 72 h

T1 sequence (P42345 1360-2549): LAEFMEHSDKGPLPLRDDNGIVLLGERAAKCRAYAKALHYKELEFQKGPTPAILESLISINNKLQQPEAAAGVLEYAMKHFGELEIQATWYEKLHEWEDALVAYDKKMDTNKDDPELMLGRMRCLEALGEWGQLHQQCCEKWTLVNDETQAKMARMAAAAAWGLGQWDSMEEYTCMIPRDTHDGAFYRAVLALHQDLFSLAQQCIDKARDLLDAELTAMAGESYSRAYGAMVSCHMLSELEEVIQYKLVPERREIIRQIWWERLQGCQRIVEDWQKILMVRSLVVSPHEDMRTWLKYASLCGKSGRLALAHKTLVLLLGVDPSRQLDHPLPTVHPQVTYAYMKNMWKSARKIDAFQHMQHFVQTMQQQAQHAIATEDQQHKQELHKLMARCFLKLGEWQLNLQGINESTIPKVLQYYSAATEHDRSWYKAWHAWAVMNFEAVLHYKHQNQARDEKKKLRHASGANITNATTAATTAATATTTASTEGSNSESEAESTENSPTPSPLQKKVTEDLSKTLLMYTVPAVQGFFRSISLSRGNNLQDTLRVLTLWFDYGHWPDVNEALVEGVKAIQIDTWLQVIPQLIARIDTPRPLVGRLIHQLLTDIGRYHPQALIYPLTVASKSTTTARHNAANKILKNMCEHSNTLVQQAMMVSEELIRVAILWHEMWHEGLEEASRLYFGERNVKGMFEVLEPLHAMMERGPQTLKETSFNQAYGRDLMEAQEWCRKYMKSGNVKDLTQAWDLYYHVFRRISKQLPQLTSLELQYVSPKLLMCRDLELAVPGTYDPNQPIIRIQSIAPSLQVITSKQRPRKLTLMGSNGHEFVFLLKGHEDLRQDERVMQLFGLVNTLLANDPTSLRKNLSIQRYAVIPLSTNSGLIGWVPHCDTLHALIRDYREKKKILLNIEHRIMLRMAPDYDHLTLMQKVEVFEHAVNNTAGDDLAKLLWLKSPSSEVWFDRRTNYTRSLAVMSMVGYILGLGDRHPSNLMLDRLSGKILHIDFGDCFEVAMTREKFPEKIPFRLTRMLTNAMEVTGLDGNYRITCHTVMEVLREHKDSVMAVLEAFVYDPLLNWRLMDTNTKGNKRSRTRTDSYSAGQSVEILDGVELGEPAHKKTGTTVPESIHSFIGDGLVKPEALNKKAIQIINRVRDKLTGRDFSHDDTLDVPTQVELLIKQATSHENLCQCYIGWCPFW

## COc1cc(C)cc2cc(-c3c(CNCC(C)O)c(CN4CCOCC4)n4ncnc(N)c34)sc12 (racemic) [Example 53, rac-1-({[4-Amino-5-(7-methoxy-5-methyl-1-benzothiophen-2-yl)-7-(morpholin-4-ylmethyl)pyrrolo[2,1-f][1,2,4]triazin-6-yl]methyl}amino)propan-2-ol]
mTOR
  inhibition at 1 µM: 3.3%
[1]
  IC50: 3.3 nM

## COc1cc(C)cc2cc(-c3c(CO)c(CN4CCNC(=O)C4)n4ncnc(N)c34)sc12 [Example 13, 4-{[4-Amino-6-(hydroxymethyl)-5-(7-methoxy-5-methyl-1-benzothiophen-2-yl)pyrrolo[2,1-f][1,2,4]-triazin-7-yl]methyl}piperazin-2-one]
mTOR
  inhibition at 1 µM: 14.9%
[1]
  IC50: 17 nM

## COc1cc(C)cc2cc(-c3c(COCCO)c(CN4CCNC(=O)C4)n4ncnc(N)c34)sc12 [Example 21, 4-({4-Amino-6-[(2-hydroxyethoxy)methyl]-5-(7-methoxy-5-methyl-1-benzothiophen-2-yl)pyrrolo[2,1-f][1,2,4]triazin-7-yl}methyl)piperazin-2-one formiate]
mTOR
  inhibition at 1 µM: 5%
[1]
  IC50: 3.7 nM

## COc1cc(C)cc2cc(-c3c(COC4CCC4)c(CN4CCNCC4)n4ncnc(N)c34)sc12 [Example 26, 6-[(Cyclobutyloxy)methyl]-5-(7-methoxy-5-methyl-1-benzothiophen-2-yl)-7-(piperazin-1-ylmethyl)pyrrolo[2,1-f][1,2,4]triazin-4-amine]
mTOR
  inhibition at 1 µM: 6.8%
[1]
  IC50: 56.7 nM

## COc1cc(C)cc2cc(-c3c(COCC(N)=O)c(CN4CCN(C(C)=O)CC4)n4ncnc(N)c34)sc12 [Example 34, 2-({7-[(4-Acetylpiperazin-1-yl)methyl]-4-amino-5-(7-methoxy-5-methyl-1-benzothiophen-2-yl)pyrrolo[2,1-f][1,2,4]triazin-6-yl}methoxy)acetamide]
mTOR
  inhibition at 1 µM: 25.9%
[1]
  IC50: 37.3 nM

## COc1cc(C)cc2cc(-c3c(CN[C@H]4CCNC4=O)c(CN4CCOCC4)n4ncnc(N)c34)sc12 [Example 51, (3S)-3-({[4-Amino-5-(7-methoxy-5-methyl-1-benzothiophen-2-yl)-7-(morpholin-4-ylmethyl)pyrrolo[2,1-f][1,2,4]triazin-6-yl]methyl}amino)pyrrolidin-2-one]
mTOR
  inhibition at 1 µM: 8.4%
[1]
  IC50: 1.2 nM

## COc1cc(C)cc2cc(-c3c(CN4CCNC(=O)C4)c(CN4CCOCC4)n4ncnc(N)c34)sc12 [Example 52, 4-{[4-Amino-5-(7-methoxy-5-methyl-1-benzothiophen-2-yl)-7-(morpholin-4-ylmethyl)pyrrolo[2,1-f][1,2,4]triazin-6-yl]methyl}piperazin-2-one]
mTOR
  inhibition at 1 µM: 4.2%
[1]
  IC50: 4 nM

## COc1cc(C)cc2cc(-c3c(CNCC(C)(C)O)c(CN4CCOCC4)n4ncnc(N)c34)sc12 [Example 54, 1-({[4-Amino-5-(7-methoxy-5-methyl-1-benzothiophen-2-yl)-7-(morpholin-4-ylmethyl)pyrrolo[2,1-f][1,2,4]triazin-6-yl]methyl}amino)-2-methylpropan-2-ol]
mTOR
  inhibition at 1 µM: 1.7%
[1]
  IC50: 2.2 nM

## COc1cc(C)cc2cc(-c3c(CN[C@@H]4CCNC4=O)c(CN4CCN(C(C)=O)CC4)n4ncnc(N)c34)sc12 [Example 56, (3R)-3-[({7-[(4-Acetylpiperazin-1-yl)methyl]-4-amino-5-(7-methoxy-5-methyl-1-benzothiophen-2-yl)pyrrolo[2,1-f][1,2,4]triazin-6-yl}methyl)amino]pyrrolidin-2-one]
mTOR
  inhibition at 1 µM: 16.1%
[1]
  IC50: 18.1 nM

## COc1cc(C)cc2cc(-c3c(CNCC(C)(C)O)c(CN4CCN(C(C)=O)CC4)n4ncnc(N)c34)sc12 [Example 57, 1-(4-{[4-Amino-6-{[(2-hydroxy-2-methylpropyl)amino]methyl}-5-(7-methoxy-5-methyl-1-benzothiophen-2-yl)pyrrolo[2,1-f][1,2,4]triazin-7-yl]methyl}piperazin-1-yl)ethanone]
mTOR
  inhibition at 1 µM: 2%
[1]
  IC50: 3.2 nM

## COc1cc(C)cc2cc(-c3c(CN4CCNC(=O)C4)c(CN4CCN(C(C)=O)CC4)n4ncnc(N)c34)sc12 [Example 59, 4-({7-[(4-Acetylpiperazin-1-yl)methyl]-4-amino-5-(7-methoxy-5-methyl-1-benzothiophen-2-yl)pyrrolo[2,1-f][1,2,4]triazin-6-yl}methyl)piperazin-2-one]
mTOR
  inhibition at 1 µM: 0.8%
[1]
  IC50: 51.1 nM

## COC(=O)c1c(-c2cc3cc(C)cc(OC)c3s2)c2c(N)ncnn2c1C(=O)N1CCNCC1 [Example 60, Methyl 4-amino-5-(7-methoxy-5-methyl-1-benzothiophen-2-yl)-7-(piperazin-1-ylcarbonyl)pyrrolo[2,1-f][1,2,4]triazine-6-carboxylate bis(formiate)]
mTOR
  inhibition at 1 µM: 11.1%
[1]
  IC50: 250 nM

## COc1cc(C)cc2cc(-c3c(CNC(C)=O)c(CN4CCNC(=O)C4)n4ncnc(N)c34)sc12 [Example 67, N-({4-Amino-5-(7-methoxy-5-methyl-1-benzothiophen-2-yl)-7-[(3-oxopiperazin-1-yl)methyl]-pyrrolo[2,1-f][1,2,4]triazin-6-yl}methyl)acetamide]
mTOR
  inhibition at 1 µM: 8.4%
[1]
  IC50: 12.1 nM

## COc1cc(C)cc2cc(-c3c(CO)c(C#N)n4ncnc(N)c34)sc12 [Example 68, 4-Amino-6-(hydroxymethyl)-5-(7-methoxy-5-methyl-1-benzothiophen-2-yl)pyrrolo[2,1-f][1,2,4]-triazine-7-carbonitrile]
mTOR
  inhibition at 1 µM: 8%
[1]
  IC50: 14.4 nM

## COc1cc(C)cc2cc(-c3c(CNC(C)=O)c(CNC(C)=O)n4ncnc(N)c34)sc12 [Example 72, N,N′-{[4-Amino-5-(7-methoxy-5-methyl-1-benzothiophen-2-yl)pyrrolo[2,1-f][1,2,4]triazine-6,7-diyl]bis(methylene)}diacetamide]
mTOR
  inhibition at 1 µM: 8.2%
[1]
  IC50: 1.6 nM

## COc1cc(C)cc2cc(-c3c(CO)c(C(C)(C)O)n4ncnc(N)c34)sc12 [Example 73, 2-[4-Amino-6-(hydroxymethyl)-5-(7-methoxy-5-methyl-1-benzothiophen-2-yl)pyrrolo[2,1-f][1,2,4]-triazin-7-yl]propan-2-ol]
mTOR
  inhibition at 1 µM: 18.5%
[1]
  IC50: 5.5 nM

## COc1cc(C)cc2cc(-c3c(CN4CCNC(=O)C4)c(C(C)(C)O)n4ncnc(N)c34)sc12 [Example 74, 4-{[4-Amino-7-(2-hydroxypropan-2-yl)-5-(7-methoxy-5-methyl-1-benzothiophen-2-yl)pyrrolo[2,1-f][1,2,4]triazin-6-yl]methyl}piperazin-2-one]
mTOR
  inhibition at 1 µM: 18.6%
[1]
  IC50: 0.2 nM

## COc1cc(C)cc2cc(-c3c(CO)c(C)n4ncnc(N)c34)sc12 [Example 75, [4-Amino-5-(7-methoxy-5-methyl-1-benzothiophen-2-yl)-7-methylpyrrolo[2,1-f][1,2,4]triazin-6-yl]-methanol]
mTOR
  inhibition at 1 µM: 10.2%
[1]
  IC50: 1.5 nM

## COc1cc(C)cc2cc(-c3c(CN4CCNC(=O)C4)c(C)n4ncnc(N)c34)sc12 [Example 76, 4-{[4-Amino-5-(7-methoxy-5-methyl-1-benzothiophen-2-yl)-7-methylpyrrolo[2,1-f][1,2,4]triazin-6-yl]methyl}piperazin-2-one]
mTOR
  inhibition at 1 µM: 8.5%
[1]
  IC50: 1.5 nM

## COc1cc(C)cc2cc(-c3c(CNCC(C)(C)O)c(C)n4ncnc(N)c34)sc12 [Example 77, 1-({[4-Amino-5-(7-methoxy-5-methyl-1-benzothiophen-2-yl)-7-methylpyrrolo[2,1-f][1,2,4]triazin-6-yl]methyl}amino)-2-methylpropan-2-ol formiate]
mTOR
  mTOR % inhibition @ 1 μM: 0.7%
[1]
  IC50: 3.2 nM

## COc1cc(C)cc2cc(-c3c(CN4CCNC(=O)C4)c(Cl)n4ncnc(N)c34)sc12 [Example 80, 4-{[4-Amino-7-chloro-5-(7-methoxy-5-methyl-1-benzothiophen-2-yl)pyrrolo[2,1-f][1,2,4]triazin-6-yl]methyl}piperazin-2-one]
mTOR
  inhibition at 1 µM: 3.9%

## COc1cc(C)cc2cc(-c3c(CNCC(C)(C)O)c(Cl)n4ncnc(N)c34)sc12 [Example 82, 1-({[4-Amino-7-chloro-5-(7-methoxy-5-methyl-1-benzothiophen-2-yl)pyrrolo[2,1-f][1,2,4]triazin-6-yl]methyl}amino)-2-methylpropan-2-ol]
mTOR
  mTOR % inhibition @ 1 μM: 7.1%

## CCOCc1c(-c2cc3cc(C)cc(OC)c3s2)c2c(N)ncnn2c1Cl [Example 83, 7-Chloro-6-(ethoxymethyl)-5-(7-methoxy-5-methyl-1-benzothiophen-2-yl)pyrrolo[2,1-f][1,2,4]-triazin-4-amine]
mTOR
  inhibition at 1 µM: 6.3%

## COc1cc(C)cc2cc(-c3c(Cl)c(CN4CCNCC4)n4ncnc(N)c34)sc12 [Example 85, 6-Chloro-5-(7-methoxy-5-methyl-1-benzothiophen-2-yl)-7-(piperazin-1-ylmethyl)pyrrolo[2,1-f]-[1,2,4]triazin-4-amine trihydrochloride]
mTOR
  inhibition at 1 µM: 0.9%

## CCOCc1c(-c2cc3cc(C)cc(OC)c3s2)c2c(N)ncnn2c1CN1CCNC1=O [Example 87, 1-{[4-Amino-6-(ethoxymethyl)-5-(7-methoxy-5-methyl-1-benzothiophen-2-yl)pyrrolo[2,1-f][1,2,4]-triazin-7-yl]methyl}imidazolidin-2-one]
mTOR
  inhibition at 1 µM: 12.7%

## COCc1c(-c2cc3cccc(OC)c3s2)c2c(N)ncnn2c1CN1CCNC(=O)C1 [Example 88, 4-{[4-Amino-5-(7-methoxy-1-benzothiophen-2-yl)-6-(methoxymethyl)pyrrolo[2,1-f][1,2,4]triazin-7-yl]methyl}piperazin-2-one]
mTOR
  inhibition at 1 µM: 5.3%

## CCOCc1c(-c2cc3cc(C)cc(OC)c3s2)c2c(N)ncnn2c1CN[C@H]1CCNC1=O [Example 93, (3S)-3-({[4-Amino-6-(ethoxymethyl)-5-(7-methoxy-5-methyl-1-benzothiophen-2-yl)pyrrolo[2,1-f]-[1,2,4]triazin-7-yl]methyl}amino)pyrrolidin-2-one]
mTOR
  inhibition at 1 µM: 12.5%

## CCOCc1c(-c2cc3cc(C)cc(OC)c3s2)c2c(N)ncnn2c1CN1CCS(=O)(=O)CC1 [Example 99]
mTOR
  inhibition at 1 µM: 5.3%

## CCOCc1c(-c2cc3cc(C)cc(OC)c3s2)c2c(N)ncnn2c1C(=O)NCCO [Example 108]
mTOR
  inhibition at 1 µM: 8.5%
